This note sets out measurements from article PMC7815716, “Mechanistic basis of breast cancer resistance protein inhibition by new indeno[1,2-b]indoles” (Scientific Reports, 2021).

Series [1] has as its target T1, ABCG2 (Homo sapiens, UniProt Q9UNQ0).
T1 sequence (Q9UNQ0 1-655): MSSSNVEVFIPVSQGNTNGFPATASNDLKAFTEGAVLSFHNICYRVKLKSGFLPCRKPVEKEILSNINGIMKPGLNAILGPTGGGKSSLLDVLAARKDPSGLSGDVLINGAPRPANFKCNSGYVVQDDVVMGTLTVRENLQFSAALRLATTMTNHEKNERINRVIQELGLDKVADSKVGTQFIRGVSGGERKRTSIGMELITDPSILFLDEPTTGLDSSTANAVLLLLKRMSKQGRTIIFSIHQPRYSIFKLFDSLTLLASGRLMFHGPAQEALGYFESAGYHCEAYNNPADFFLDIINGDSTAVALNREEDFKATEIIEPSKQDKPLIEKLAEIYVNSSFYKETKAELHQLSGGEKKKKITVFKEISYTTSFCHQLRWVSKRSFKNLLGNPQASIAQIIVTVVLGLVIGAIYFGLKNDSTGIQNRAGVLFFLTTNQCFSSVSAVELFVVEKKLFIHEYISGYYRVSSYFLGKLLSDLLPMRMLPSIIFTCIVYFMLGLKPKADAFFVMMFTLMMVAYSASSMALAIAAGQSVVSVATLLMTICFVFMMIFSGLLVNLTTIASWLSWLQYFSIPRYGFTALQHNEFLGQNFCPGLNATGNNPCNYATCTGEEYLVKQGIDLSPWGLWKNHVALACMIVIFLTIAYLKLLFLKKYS
The series is described as follows: Thermostabilization assay (ATPase activity after heating). The settings on record: 10 µM, curves with or without ATP. It is filed as biochemical. The method, then:
The thermal stability assay was performed according to the published. Total membrane prepared from High Five insect cells overexpressing the ABCG2 at 3 µg protein/tube concentration were incubated with assay buffer composed by 50 mM Tris–HCl, pH 6.8, 150 mM N-methyl-D-glucamine (NMDG)-Cl, 5 mM sodium azide, 1 mM ouabain and 2 mM DTT in the presence or absence of 0.3 mM orthovanadate at final volume of 50 µL. To evaluate the effect of those inhibitors over thermal stability, each sample was prepared with 12.5 mM MgCl2 or 6.25 mM ATP and incubated with a temperature range from 37 to 71 °C for 10 min using a thermocycler C1000 Touch (Bio-Rad, Hercules, CA). After incubation, 10 µL of 25 mM ATP or 50 mM MgCl2 (5 and 10 mM final concentration, respectively) was added and incubated at 37 °C/20 min to allow ATP hydrolysis. The reaction was stopped with the addition of 50 µL of Pi solution containing 1% ammonium molibdate, 2.5 N H2SO4 and 0.014% potassium-antimony tartrate. To evaluate the absorbance, the samples were transferred to a 96 well plate (50 µL/well), added 150 µL of 0.33% sodium ascorbate solution. The absorbance was measured after 15 min incubation at room temperature using the microplate reader Spectramax iD3 (Molecular Devices, San Jose, CA). The sensitive activity to vanadate (Vi) was calculated as the difference between the activity in the absence of Vi minus the activity in the presence of Vi to each temperature.

The target of series [2] is T1, ABCG2. The experiment in a line: Inhibition of ABCG2-mediated mitoxantrone efflux (flow cytometry). It is filed as cell-based. The arrangement: expressed in transfected cells; host or cells: HEK293. The settings on record: for inhibition at 30 min: human, probe mitoxantrone (10 µM), from IC50 fitted curves, HEK293-ABCG2, mitoxantrone, 100% = Ko143 0.5 µM, read-out: IMAX (%) ± SD, maximal inhibition percentage; for Class of inhibitor by IMAX (complete or partial): threshold at 80% on IMAX values. The method, then:
ABCG2 inhibition assays were carried out on HEK293 WT and HEK293-ABCG2 cells. Cells were seeded at the density of 1 × 10^5 cells/well in 24 well culture plates and incubated for 48 h at 37 °C under 5% CO2. Cells were treated with compounds and 10 μM of mitoxantrone for 30 min at 37 °C and 5% CO2. After incubation the cells were washed with PBS, trypsinized and resuspended in ice cold PBS. The intracellular drug fluorescence was monitored with a FACS Calibur cytometer (Becton Dickinson) using the FL4 channel, with at least 10,000 events collected. The maximal fluorescence (taken as 100%) was determined with the difference between the mean fluorescence of HEK-ABCG2 cells incubated with 0.5 μM Ko143 (ABCG2 reference inhibitor) or by using the HEK293 WT cell line as a control and cells without inhibitor (mitoxantrone alone). The percent of inhibition was determined as previously described. For bimodulation assays the cells were concomitantly treated with 10 μM of one or two combined inhibitors under similar conditions as described previously. For washing assays, cells were treated with 10 μM concentrations of compounds for 30 min. Then, the medium with the inhibitor was removed and the cells were washed with PBS and incubated only with culture medium for different periods of time (0.5 and 3 h). After incubation, cells were exposed to 5 µM mitoxantrone for 30 min, and then analyzed by flow cytometry. The percentage of transport inhibition was calculated by the following equation: %Inhibition=C-S/I-S×100 where “C” corresponds to the intracellular fluorescence of cells in the presence of the tested compounds and substrate (mitoxantrone to ABCG2, Rhodamine 123 to ABCB1 and calcein to ABCC1), “S” corresponds to the intracellular fluorescence of cells in the presence of substrate alone, and “I” corresponds to the intracellular fluorescence of cells in the presence of the substrate and reference inhibitor (Ko143 to ABCG2, GF120918 to ABCB1 and verapamil to ABCC1).

The target in series [3] is T1, ABCG2. The series is described as follows: ABCG2 ATPase activity, High-Five insect cell total membranes. It is filed as biochemical. Also on record: expressed in transfected cells. The method, then: The ATPase assay was carried out as previously described. High-Five insect cell total membranes overexpressing ABCG2 were used at a concentration of 5 µg protein/tube in a final volume of 100 µL. The membranes were incubated in assay buffer containing 50 mM Tris–HCl, pH 6.8, 150 mM N-methyl-D-glucamine (NMDG)-Cl, 5 mM sodium azide, 1 mM EGTA, 1 mM ouabain, 2 mM DTT, and 10 mM MgCl2, in the presence or absence of sodium orthovanadate (0.3 mM). The protein-buffer mix was treated with the compounds at increasing concentrations (0.001–5 µM) and incubated for 20 min at 37 °C in the presence of ATP (5 mM). The reaction was stopped with the addition of 100 µL of 5% SDS, for color development was added 400 µL of Pi solution (sulfuric acid 36.2 N, water, ammonium molybdate and antimony potassium tartrate) and 200 µL of 1% ascorbic acid. The absorbance was measured after 10 min at 880 nm using a spectrophotometer Ultrospec 3100 pro (Amersham Biosciences).
Table S2. Effect of indeno[1,2-b]indole derivatives on the ATPase activity of ABCG2.The vanadate-sensitive ATPase activity of ABCG2 was measured using the total membranes of High-Five insect cells expressing this transporter as described previously [S5]. The EC50 (concentration required to achieve 50% stimulation) is given as the concentration ± SD (nM) of three independent experiments in duplicate.

Where [4] appears, read: EC50 (nM ± SD) values of stimulation on the ATPase activity of ABCG2, vanadate-sensitive ATPase, High-Five insect cell total membranes.
The mark [5] stands for this setting: EC50 of stimulation of ABCG2 ATPase activity, approximate values.

Like-named read-outs stand apart in the source and are kept apart here.

As to `COc1cc2c(cc1OC)-c1c(c3c(n1CCc1ccccc1)CC(C)CC3=O)C2=O` (stereo not shown) [5e, 2,3-Dimethoxy-7-methyl-5-phenethyl-5,6,7,8-tetrahydroindeno[1,2-b]indole-9,10-dione], on ABCG2 [1], the “Thermostabilization effect” value is recorded as “moderate effect”. Besides, on ABCG2 [2] (HEK293-ABCG2 cells, mitoxantrone 10 µM, 30 min, read-out: IC50 (µM) ± SD, inhibition of ABCG2-mediated mitoxantrone efflux), the IC50 was 0.15 ± 0.08 µM. Also, the inhibition at 30 min on ABCG2 [2] (HEK293-ABCG2 cells) was 36.9 ± 1.16%. Further, the “Class of inhibitor by IMAX (complete or partial)” value on ABCG2 [2] is given as “partial (partial (IMAX ≤ 80% of ABCG2 inhibition))”. For the same compound, the EC50 at ABCG2 [3] (approximate values, read-out: EC50 of stimulation of ABCG2 ATPase activity) was about 170 nM; at ABCG2 [3] (vanadate-sensitive ATPase, High-Five insect cell total membranes, read-out: EC50 (nM ± SD) values of stimulation on the ATPase activity of ABCG2) it was 170 ± 11 nM.
For the compound `COc1ccccc1CCn1c2c(c3c(O)cc(C)cc31)C(=O)c1ccccc1-2` [6a, 9-Hydroxy-7-methyl-5-(2-methoxyphenethyl)-5H-indeno[1,2-b]indol-10(5H)-one], on ABCG2 [1], the “Thermostabilization effect” value is reported as “moderate effect”. Besides, at ABCG2 [2], the half-maximal inhibitory concentration (IC50) is 0.21 ± 0.03 µM and the “Class of inhibitor by IMAX (complete or partial)” value was “partial (partial (IMAX ≤ 80% of ABCG2 inhibition))”. Besides, the inhibition at 30 min on ABCG2 [2] (HEK293-ABCG2 cells) amounted to 62.6 ± 2.3%. On ABCG2 [3] (setting [4]), this compound returned an EC50 of 2.9 ± 0.45 nM. Further, on ABCG2 [3] (setting [5]), the EC50 was about 3 nM.
Take `COc1ccc2[nH]cc(CCn3c4c(c5c(O)cccc53)C(=O)c3ccccc3-4)c2c1` [6c, 9-Hydroxy-5-(2-(5-methoxy-1H-indol-3-yl)ethyl)indeno[1,2-b]indol-10(5H)-one]: the “Thermostabilization effect” value on ABCG2 [1] was “most pronounced effect”. Also, 0.48 ± 0.1 µM corresponded to half-maximal inhibition against ABCG2 [2] (IC50). The inhibition at 30 min on ABCG2 [2] (HEK293-ABCG2 cells) worked out at 90.5 ± 8.07%. For the same compound, the EC50 on ABCG2 [3] (setting [4]) is 4.4 ± 0.71 nM; on ABCG2 [3] (setting [5]), about 3 nM.
Taken in the same sequence, the figures for `COc1cccc(CCn2c3c(c4c(O)cccc42)C(=O)c2ccc(O)cc2-3)c1` [6d, 3,9-Dihydroxy-5-(3-methoxyphenethyl)indeno[1,2-b]indol-10(5H)-one] were “most pronounced effect”, 0.19 ± 0.04 µM, 84.8 ± 2.51%, 3.2 ± 0.44 nM and about 3 nM.
